Entries after “also recorded” stand apart in the source; their conditions may differ. Read-outs that look alike come from different tables or passages of the source.
Tests used:
HUVEC [1] = assay: Inhibitory activity on VEGF-induced in vitro proliferation of HUVEC (MTS); assay type: cell-based; settings: Homo sapiens, 72 h, read-out: EC50, activity on VEGF-induced in vitro proliferation of HUVEC
Experimental: Assays for inhibitory activity on VEGF-induced proliferation of Human umbilical veins […] cell (HUVEC) line: HUVECs were cultured in F-12K containing 10% FBS, 18 u/mL heparin and 30 µg/mL ECGS, and HUVECs at 4-8 passages were selected for the experiment. The cells were digested with pancreatin, re-suspended in culture media (1×10^5/mL), and were added to a 96-well plate with 100 μL/well, for overnight adherent culturing. The culture was replaced with an F-12K culture solution containing 5% FBS and the cells were cultured for 24 h. […] A 0.1% FBS F-12K culture solution containing VEGF165 at a final concentration of 30 ng/ml or the vehicle (DMSO) was added and the cells were cultured under induction for 72 h. The culture solution was removed by pipetting, and 120 μL MTS assay solution was added to each well, which was incubated at 37° C. The OD490 was read. The group treated with a 5% FBS F-12K culture solution served as the negative control. VEGF-stimulated growth value was obtained by subtracting the OD of the negative control group from the OD of the VEGF165-stimulated group, and used for calculation of inhibition. A dose-effect curve was drawn using the GraphPad Prism software, and half effective concentration (EC50) was calculated.

[2] = Cytotoxicity to HUVEC (MTS); assay type: cell-based, Human; settings: human, HUVEC cells; 72 h
Experimental: (§1) Assays for cytotoxicity: the above HUVECs were cultured in an F-12K culture medium containing 10% fetal bovine serum (FBS), 100 U/mL penicillin, 100 µg/mL streptomycin, 30 ug/mL ECGS, and 18 u/mL heparin. The HUVECs growing in the exponential phase were digested with pancreatin, and was adjust to have an appropriate level of cell density by using an F-12K complete medium containing 5% FBS, then 150 μL cells were inoculated into a 96-well plate at 3000 cells/well. […] After the cells were further cultured for 72 h, 20 μL MTS and 1 μL PMS were added to each well. 1-2 hours later, OD490 was measured, with OD650 as a reference. A dose-effect curve was drawn using the GraphPad Prism software, and half cytotoxic concentration (CC50) was calculated. The therapeutic index (TI) of the test compound on HUVECs was calculated as TI=CC50/EC50.

HUVEC [3] = assay: Cytotoxicity to HUVEC (MTS); assay type: cell-based, Human; settings: for TI = CC50/EC50: HUVEC; for Cytotoxicity to HUVEC compared with sunitinib: in words
Experimental: as §1

[4] = target: KDR (VEGF receptor) tyrosine kinase (Homo sapiens, UniProt P35968); assay: In vitro assay of biochemical activity on KDR tyrosine kinase (HTRF); settings: read-out: In vitro inhibitory activity on KDR, IC50
Experimental: In vitro inhibitory activity of the compounds on KDR (VEGF receptor) tyrosine kinase was assayed by the HTRF (homogeneous time-resolved fluorescence) method. […] 10 μl SA-XL665 and a TK antibody were added to each well, which was incubated at room temperature for 1 h and read with Synergy2.

MV-4-11 cell line = assay: Inhibitory activity on proliferation of human-derived MV-4-11 tumor cell line (MTS); assay type: cell-based; settings: for IC50: Homo sapiens, MV4-11, 72 h, read-out: IC50, in vitro proliferation of MV-4-11 cell line; for Maximum inhibition: MV-4-11, 72 h
Description: Human-derived acute leukemia cell line MV-4-11 is a cell line having mutation(s) in Flt-3.

[5] = tested on: MV-4-11 transplanted tumor; assay: In vivo inhibition on MV-4-11 transplanted tumor in nude mice; design: species or system Balb/c nude mice; settings: for BW (body weight) D0 / TV (tumor volume) D0: D0, 80 mg/kg intragastric once per day; for BW (body weight) D0 / BW (body weight) D21: in g (unit assumed); for TV (tumor volume) D0 / TV (tumor volume) D21: in mm³; for BW (body weight) D21 / TV (tumor volume) D21: D21, 80 mg/kg intragastric once per day
Experimental: MV-4-11 cells were cultured to proliferate in vitro, and the cells growing in the exponential phase were harvested and re-suspended in a serum-free EMEM culture medium. The cell suspension was subcutaneously injected by a syringe into the axillary cavity of the right forelimb of male Balb/c nude mice. The animals and growth of transplanted tumors were observed regularly. […] During the administration period, the diameter of tumors and body weight (BW) of animals were measured, and the living status of animals was monitored. The experiment was finished 3 weeks after administration, and the animals were sacrificed with CO2 and subjected to autopsy.

[6] = day 21, 80 mg/kg intragastric, in words

Chain of KDR (VEGF receptor) tyrosine kinase (P35968 20-1356): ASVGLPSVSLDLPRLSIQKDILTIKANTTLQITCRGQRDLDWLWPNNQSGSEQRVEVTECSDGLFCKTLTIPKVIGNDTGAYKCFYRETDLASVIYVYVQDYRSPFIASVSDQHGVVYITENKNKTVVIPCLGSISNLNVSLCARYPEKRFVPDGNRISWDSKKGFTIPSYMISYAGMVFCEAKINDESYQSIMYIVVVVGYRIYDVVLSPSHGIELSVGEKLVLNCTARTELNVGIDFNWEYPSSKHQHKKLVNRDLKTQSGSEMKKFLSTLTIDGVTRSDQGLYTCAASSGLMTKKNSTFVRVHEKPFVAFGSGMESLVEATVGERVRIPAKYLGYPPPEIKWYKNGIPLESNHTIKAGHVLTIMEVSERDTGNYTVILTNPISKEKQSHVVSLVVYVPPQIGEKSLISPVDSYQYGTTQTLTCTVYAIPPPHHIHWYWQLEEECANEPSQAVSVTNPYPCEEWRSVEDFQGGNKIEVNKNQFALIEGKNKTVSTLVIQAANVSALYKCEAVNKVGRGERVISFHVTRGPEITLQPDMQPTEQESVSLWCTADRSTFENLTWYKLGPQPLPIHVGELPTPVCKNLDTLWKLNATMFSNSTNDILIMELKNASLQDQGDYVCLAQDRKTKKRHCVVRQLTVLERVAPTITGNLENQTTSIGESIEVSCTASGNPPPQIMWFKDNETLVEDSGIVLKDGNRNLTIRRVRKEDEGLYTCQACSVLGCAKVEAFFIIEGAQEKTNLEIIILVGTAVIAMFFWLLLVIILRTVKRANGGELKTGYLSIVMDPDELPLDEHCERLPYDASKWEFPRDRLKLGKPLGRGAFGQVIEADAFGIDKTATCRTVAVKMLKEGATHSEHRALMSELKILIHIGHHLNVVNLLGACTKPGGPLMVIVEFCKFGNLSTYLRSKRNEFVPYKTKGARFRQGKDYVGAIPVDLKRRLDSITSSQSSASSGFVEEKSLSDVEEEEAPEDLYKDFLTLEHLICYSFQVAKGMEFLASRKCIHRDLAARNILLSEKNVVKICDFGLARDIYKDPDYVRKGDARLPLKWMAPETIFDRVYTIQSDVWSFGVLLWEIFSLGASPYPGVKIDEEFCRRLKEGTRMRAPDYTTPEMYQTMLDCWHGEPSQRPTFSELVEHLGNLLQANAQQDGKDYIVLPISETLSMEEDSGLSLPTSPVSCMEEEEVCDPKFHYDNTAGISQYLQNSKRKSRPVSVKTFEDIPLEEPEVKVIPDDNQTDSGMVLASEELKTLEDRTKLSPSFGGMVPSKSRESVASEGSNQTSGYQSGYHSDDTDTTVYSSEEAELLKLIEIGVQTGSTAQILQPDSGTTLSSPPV

Row | IC50 [4] [nM] | IC50 (MV-4-11 cell line) [nM] | Structure (SMILES) | EC50 (HUVEC [1]; VEGF165 30 ng/ml) [nM] | CC50 at 72 h [2] [nM] | TI = CC50/EC50 (HUVEC [3]) | Cytotoxicity to HUVEC compared with sunitinib (HUVEC [3]) | Maximum inhibition (MV-4-11 cell line) [%] | BW (body weight) D0 [5] | TV (tumor volume) D0 [5] | BW (body weight) D21 [5] | TV (tumor volume) D21 [5] | Effect on tumors [5, 6] | Impact on body weight of animals [5, 6] | EC50 (HUVEC [1]) [nM] | Impact on body weight of animals ([5]; day 21, 80 mg/kg intragastric, in words, listed as sunitinib)
1 | 141 | 1.68 | Cc1[nH]c(/C=C2\C(=O)Nc3ccc(F)cc32)c(C)c1NC(=O)C1CCN(C)CC1 [Compound 5] | 18.4 | > 20000 | >1085 | considerably lower than that of sunitinib | 95.0 |  |  |  |  |  |  |  | 
2 | 89 | 5.34 | Cc1[nH]c(/C=C2\C(=O)Nc3ccc(F)cc32)c(C)c1NC(=O)C1CCCCN1 (stereo not shown) [Compound 9] |  |  |  |  | 94.3 |  |  |  |  |  |  |  | 
3 | 74 |  | Cc1[nH]c(/C=C2\C(=O)Nc3ccc(F)cc32)c(C)c1NC(=O)C1CCN(C(=O)N2CCCC2)CC1 [Compound 11] | 13.9 | > 20000 | >1436 | considerably lower than that of sunitinib |  |  |  |  |  |  |  |  | 
4 | 143 |  | Cc1[nH]c(/C=C2\C(=O)Nc3ccc(F)cc32)c(C)c1NC(=O)C1CCCN(C(=O)N2CCCC2)C1 (stereo not shown) [Compound 14] | 13 | > 20000 | >1534 | considerably lower than that of sunitinib |  |  |  |  |  |  |  |  | 
5 | 65 | 12.3 | Cc1[nH]c(/C=C2\C(=O)Nc3ccc(F)cc32)c(C)c1NC(=O)[C@@H]1CCCN1 [Compound 15] | 14.2 | 17700 | 1247 | considerably lower than that of sunitinib | 92.5 |  |  |  |  |  |  |  | 
6 |  | 3.94 | CCN(CC)CCNC(=O)c1c(C)[nH]c(/C=C2\C(=O)Nc3ccc(F)cc32)c1C [Sunitinib, reference compound] |  | 4140 |  |  | 94.4 | 19.47 ± 0.33 | 242.75 ± 20.58 | 16.02 ± 0.56 | 12.97 ± 2.47 |  | significantly reduces the body weight | 7.73 | significantly reduced

Second part, the molecule before the results:

Row | Structure (SMILES) | IC50 [4] [nM] | IC50 (MV-4-11 cell line) [nM] | EC50 (HUVEC [1]; VEGF165 30 ng/ml) [nM] | CC50 at 72 h [2] [nM] | TI = CC50/EC50 (HUVEC [3]) | Cytotoxicity to HUVEC compared with sunitinib (HUVEC [3]) | Maximum inhibition (MV-4-11 cell line) [%] | BW (body weight) D0 [5] | TV (tumor volume) D0 [5] | BW (body weight) D21 [5] | TV (tumor volume) D21 [5] | Effect on tumors [5, 6] | Impact on body weight of animals [5, 6] | EC50 (HUVEC [1]) [nM] | Impact on body weight of animals ([5]; day 21, 80 mg/kg intragastric, in words, listed as sunitinib)
7 | Cc1[nH]c(/C=C2\C(=O)Nc3ccc(F)cc32)c(C)c1NC(=O)N1CCCCC1 [Comparative compound 1, reference compound] |  |  | 13.2 | 5690 | 430 |  |  |  |  |  |  |  |  |  | 
8 | Cc1[nH]c(/C=C2\C(=O)Nc3ccc(F)cc32)c(C)c1NC(=O)N1CCCC1 [Comparative compound 2, reference compound] |  |  | 12.3 | 6980 | 567 |  |  |  |  |  |  |  |  |  | 
9 | Cc1[nH]c(/C=C2\C(=O)Nc3ccc(F)cc32)c(C)c1NC(=O)CC1CCNCC1 [Comparative compound 3, reference compound] |  |  | 14.6 | 8050 | 550 |  |  |  |  |  |  |  |  |  | 
10 | Cc1[nH]c(/C=C2\C(=O)Nc3ccc(F)cc32)c(C)c1NC(=O)C1CCNCC1 [Compound 2] | 290 | 4.7 | 16.1 | > 20000 | >1238 | considerably lower than that of sunitinib | 92.6 |  |  |  |  |  |  |  | 
11 | Cc1[nH]c(/C=C2\C(=O)Nc3ccc(F)cc32)c(C)c1NC(=O)C1CCN(C(=O)N(C)C)CC1 [Compound 3] | 78 | 10.7 | 13.7 | > 20000 | >1456 | considerably lower than that of sunitinib | 92.1 |  |  |  |  |  |  |  | 
12 | Cc1[nH]c(/C=C2\C(=O)Nc3ccc(F)cc32)c(C)c1NC(=O)[C@H]1CCCN1 [Compound 6] | 83 | 11.6 | 13.3 | 17600 | 1316 | considerably lower than that of sunitinib | 92.4 | 20.42 ± 0.20 | 238.25 ± 13.18 | 21.38 ± 0.37 | 0.00 ± 0.00 | completely disappeared; also recorded: complete disappearance of tumors | no significant impact on the body weight; also recorded: little impact on the body weight |  | 
13 | Cc1[nH]c(/C=C2\C(=O)Nc3ccc(F)cc32)c(C)c1NC(=O)[C@H]1CCCN1C(=O)N(C)C [Compound 8] | 66 |  | 11.3 | > 20000 | >1762 | considerably lower than that of sunitinib |  |  |  |  |  |  |  |  | 
14 | Cc1[nH]c(/C=C2\C(=O)Nc3ccc(F)cc32)c(C)c1NC(=O)C1CCCNC1 (stereo not shown) [Compound 12] | 142 | 7.87 |  |  |  |  | 93.1 |  |  |  |  |  |  |  | 
15 | Cc1[nH]c(/C=C2\C(=O)Nc3ccc(F)cc32)c(C)c1NC(=O)C1CCCN(C(=O)N(C)C)C1 (stereo not shown) [Compound 13] | 77 | 6.41 |  |  |  | considerably lower than that of sunitinib | 90.2 |  |  |  |  |  |  |  | 
